Experimental data reported in patent US20220151227A1, “CARNIVOROUS WASP CONTROL AGENT” (EARTH CORPORATION, priority 2019, published 2022).

Columns and labels:
Experiment in all cases: Control Test 1: aerosol sprayed on one test wasp in metal mesh cage, control time
Assay type in all cases: in vivo
Details in all cases: 2 g aerosol sprayed 1 second from approx. 30 cm, observed up to 180 seconds
[1] = test system: Polistes jokahamae
Text: (§1) Ten grams of ethyl lactate, which is an active ingredient under the present invention, was put in an aerosol can as a liquid concentrate, and then a valve part was installed on the can, after which dimethyl ether was filled through the valve part as a propellant until the weight ratio of the liquid concentrate and the propellant became 1:2, and then a spray button was installed, to obtain 30 g of aerosol test sample in Example 1.
(§2) In Examples 2 to 28 and Comparative Examples 1 to 6, the liquid concentrates shown in Table 1 below were used to obtain 30 g of respective test samples in the same manner as in Example 1.
(§3) After spraying, the time it took for the test wasp to stop behaving normally and begin grooming abnormally and showing agitated behaviors (flapping of wings), and eventually drop to the bottom of the metal gauge, was measured as the control time (in seconds). In Table 1, “IPA” stands for isopropanol, while “%” refers to % by weight.
(§4) It should be noted that “turpentine oil” in Examples 2 and 3 is a plant-based essential oil containing 85% by weight or more of α-pinene which is an active ingredient under the present invention, while Comparative Example 5 contains 1% by weight of isopropyl myristate as a dissolving aid.

[2] = test system: Vespa ducalis
Text: as §1, §2, §3, §4

[3] = test system: Polistes rothneyi
Text: as §1, §2, §3, §4

[4] = test system: Vespa simillima
Text: as §1, §2, §3, §4

[5] = test system: Vespa mandarinia
Text: as §1, §2, §3, §4

| Molecule | Control time [1] | Control time [3] | further results |
| --- | --- | --- | --- |
| CCOC(=O)C(C)O (stereo not drawn) [Example 1, Ethyl lactate] | <1 s |  |  |
| CC(C)[C@@H]1CC[C@@H](C)CC1=O [Example 4, Menthone] | <1 s |  |  |
| CC(C)[C@@H]1CC[C@@H](C)CC1=O [Example 5, Menthone] |  |  | Control time [2]: <1 s |
| COC(=O)c1ccccc1 [Example 6, Methyl benzoate] |  | <1 s |  |
| CCOC(=O)c1ccccc1 [Example 7, Ethyl benzoate] |  | <1 s |  |
| CC(C)=CCCC(C)=CCCC(C)=CCO [Example 8, Farnesol] |  | <1 s |  |
| CC(C)=C1CC[C@@H](C)CC1=O [Example 10, Pulegone] |  | <1 s |  |
| CC(C)=CCCC(C)=CC=O [Example 11, Citral] |  | <1 s |  |
| CC(C)[C@]12CC(=O)[C@H](C)[C@H]1C2 [Example 12, Thujone] |  | <1 s |  |
| CCCCCC(O)CC (stereo not drawn) [Example 13, 3-octanol] |  | <1 s |  |
| O=C(Cc1ccccc1)OCc1ccccc1 [Example 14, Benzyl phenyl acetate] |  | <1 s |  |
| CC12CCC(CC1)C(C)(C)O2 [Example 20, Cineol] |  | <1 s |  |
| CC1CCC(C(C)C)C(O)C1 (stereo not drawn) [Example 21, Menthol] | <1 s |  |  |
| C=C(C)C1CC=C(C)C(=O)C1 (stereo not drawn) [Example 23, Carvone] | <1 s |  |  |
| COC(=O)C(C)O (stereo not drawn) [Example 26, Methyl lactate] | <1 s |  |  |
| CCCCOC(=O)C(C)O (stereo not drawn) [Example 27, n-butyl lactate] | <1 s |  |  |
| COC(=O)Cc1ccccc1 [Example 28, Methyl phenyl acetate] | <1 s |  |  |
| CC(=O)OC1CC(C)CCC1C(C)C (stereo not drawn) [compound 2, Menthyl acetate] |  |  | Control time [4]: >180 s |
| C=CC(C)(O)CCC=C(C)C (stereo not drawn) [compound 3, Linalool] |  |  | Control time [5]: >180 s |
| CC(C)O [compound 6, IPA, reference compound] | >180 s |  |  |
| α-turpentine [Example 9] |  | <1 s |  |
